Source: US3940386A, “Substituted cinnamoyl-piperazine-pyridyl compound” (Cermol S.A., priority 1973, dated 1976)
Structures can show the parent of a compound that is named as a salt.

How the values were obtained:
[1] = Toxicity (mice), I.G. (Table III); format: in vivo; settings: mouse, in vivo, po
From the text: (§1) The products were used in the form of the trihydrochloride, except the product under the letter "b" which was used in the form of the dihydrochloride.

mice [2] = experiment: Toxicity (mice), I.G. (Table III); format: in vivo
From the text: as §1

[3] = Set of methods and tests of the activity of the products (vasodilatatory, spasmolytic, antihistaminic, cholinolytic, sedative, depressant, neurotoxic)
From the text: The set of methods and tests effected enabled us to appreciate the activity of the products according to the invention. It clearly follows therefrom that the products wherein: […]

cerebral circulation = experiment: Cerebral circulation: PO2 of the venous cerebral blood (sinus sagittalis) in cats anaesthetized with Nembutal; format: in vivo; settings: intravenous perfusion
Method: In the course of a series of experiments on cats anaesthetized with Nembutal, the cynetics of PO2 of the venous cerebral blood were measured (from the sinus sagittalis) during an intravenous perfusion of this product.

[4] = Acute toxicity, oral, mice (Table II); format: in vivo; settings: mouse, in vivo, aqueous solution
Method: (§2) Tests were performed on mice and albino rats, the active compound being administered orally in the form of an aqueous solution.

mice [5] = experiment: Acute toxicity, oral, mice (Table II); format: in vivo; settings: aqueous solution
Method: as §2

[6] = Acute toxicity, oral, albino rats (Table II); format: in vivo; settings: rat, in vivo, aqueous solution
Method: as §2

albino rats = experiment: Acute toxicity, oral, albino rats (Table II); format: in vivo; settings: aqueous solution
Method: as §2

[7] = Acute toxicity on mice, orally and intraperitoneally (Table I); format: in vivo; settings: mouse, in vivo, suspended in gum syrup or labrafil
Method: (§3) Tests were performed on mice, orally (P.O.) and intraperitoneally (I.P.), the active compounds being suspended in gum syrup or labrafil.

mice [8] = experiment: as above; format: in vivo; settings: for LD0: suspended in gum syrup or labrafil
Method: as §3

Fc1ccc(C(c2ccccn2)N2CCN(CC=Cc3ccccc3)CC2)cc1 (stereo not drawn) [1(2'-pyridyl-4"-fluorophenyl)-methyl-4-cinnamyl piperazine]
LD50 [1]: 400 mg/kg | LD0 (mice [2]; mouse, in vivo): 300 mg/kg | antihistaminic activity [3]: well-defined | depressant properties [3]: do not show | neurotoxic properties [3]: do not show | spasmolytic activity [3]: well-defined | vasodilatatory activity [3]: well-defined

Clc1ccc(C(c2ccccn2)N2CCN(CC=Cc3ccccc3)CC2)c(Cl)c1 (stereo not drawn) [1-(2'-pyridyl-2",4"-dichlorophenyl)-methyl-4-cinnamyl piperazine trihydrochloride]
LD50 [1]: 600 mg/kg | LD0 (mice [2]; mouse, in vivo): 400 mg/kg | antihistaminic activity [3]: well-defined | depressant properties [3]: do not show | neurotoxic properties [3]: do not show | spasmolytic activity [3]: well-defined | vasodilatatory activity [3]: well-defined

Clc1ccc(C(c2ccccn2)N2CCN(CC=Cc3ccccc3)CC2)cc1 (stereo not drawn) [1-(2'-pyridyl-4"-chlorophenyl)-methyl-4-cinnamyl piperazine]
LD50 [1]: 1180 mg/kg | LD0 (mice [2]; mouse, in vivo): 400 mg/kg | activity with respect to cerebral circulation (cerebral circulation): important activity | antihistaminic activity [3]: well-defined | depressant properties [3]: do not show | neurotoxic properties [3]: do not show | spasmolytic activity [3]: well-defined | vasodilatatory activity [3]: well-defined

CC(c1ccc(Cl)cc1)(c1ccccn1)N1CCN(CC=Cc2ccccc2)CC1 (stereo not drawn) [1-(2'-pyridyl-4"-chlorophenylmethyl)-methyl-4-cinnamyl piperazine]
LD50 ([1]; mice, I.G.): 500 mg/kg | LD0 (mice [2]; mice, I.G.): 400 mg/kg | sedative activity [3]: presents a sedative activity

C(=Cc1ccccc1)CN1CCN(C(c2ccccc2)c2ccccn2)CC1 (stereo not drawn) [1-(2'-pyridylphenyl)-methyl-4-cinnamyl piperazine]
LD50 [4]: 295 mg/kg | LD0 (mice [5]): 175 mg/kg | LD50 [6]: 1200 mg/kg | LD0 (albino rats): 200 mg/kg

C(=Cc1ccccc1)CN1CCN(C(c2ccccc2)C2CC2)CC1 (stereo not drawn) [--CH2 --, 1-(cyclopropylphenyl)-methyl-4-cinnamyl piperazine]
LD50 ([7]; po, P.O.): 570 mg/kg | LD0 (mice [8]; P.O.): ~300 mg/kg

O=C(C=Cc1ccccc1)N1CCN(C(c2ccccc2)C2CC2)CC1 (stereo not drawn) [C = O, 1-(cyclopropylphenyl)-methyl-4-cinnamoyl piperazine]
LD50 ([7]; ip, I.P.): 1480 mg/kg | LD50 ([7]; po, P.O.): > 4000 mg/kg | LD0 (mice [8]; I.P.): > 400 mg/kg | LD0 (mice [8]; P.O.): > 1000 mg/kg | toxicity (mice [8]; in words): very low toxicity
